This is an account of results in patent publication US5100909A, “Acetylenic imidazoles having central nervous system activity” (The Upjohn Company, priority 1991, dated 1992).

Values joined by “and” are separate entries in the source; they are usually repeats but may differ in a detail not shown here. Equal values may be shown once. Read-outs that look alike come from different tables or passages of the source. Bounds are passed on as bounds.

Series [1] concerns scopolamine-induced amnesia in mice. The series can be described thus: Antagonism of amnesia produced by scopolamine, one trial step through passive avoidance. Format: in vivo, mouse. The conditions noted are these: i.p. test compound, scopolamine hydrobromide 1 mg/kg s.c.; retention 24 hrs. From the text:
For antagonism of amnesia produced by scopolamine a one trial, step through passive avoidance paradigm was used. In this procedure a mouse was placed on a square platform adjoining darkened chamber. The mouse could enter the chamber through a hole above the platform. Following placement on the platform, the mouse was enclosed by a clear plexiglas cover which mildly restricted movement, limiting the animal to turning around and partial rearing. A sliding door was opened after this, exposing the entrance to the chamber. A timer was started at the same time the door was opened, in order to record latency to enter the chamber. Upon complete entry into the darkened box, the door was closed behind the mouse and a 1 mA, 2 sec, direct current shock applied to the feet of the mouse through the grid floor. The mouse was immediately removed from the chamber and returned to a 24 hr group holding cage.
Drug testing involved intraperitoneal injection of the test compound followed 15 min later by subcutaneous injection of 1 mg/kg scopolamine hydrobromide. […] The latency for each mouse to enter the chamber was recorded, with a cut-off at 180 sec.
Median group latencies to enter the chamber during both training and testing were recorded and a Wilcoxon rank sum test applied to data comparing the parallel "scopolamine only" group with all drug combination groups on testing. […]

Series [2] concerns the target CNS cholinergic receptor. The series can be described thus: Cholinergic receptor binding assay, tritiated oxotremorine M ligand. The conditions noted are these: read-out: CNS Cholinergic Receptor Binding Assays Ki (nM) Oxotremorine.
The test system of series [3] is oxotremorine-induced body tremor in mice. Description: Oxotremorine antagonist assay (body tremor) in mice. Format: in vivo. The conditions noted are these: Mus musculus, ip, read-out: Oxot. Antagonist Tremor (ED50). On the procedure: Oxotremorine antagonist assays were performed on groups of six mice weighing 18-22 g. Each was dosed intraperitoneally with the test compound prepared in 0.25% methylcellulose and were placed in individual cages. Twenty minutes later the mice were injected subcutaneously with 0.5 mg/kg of oxotremorine dissolved in saline. Ten minutes later the mice were scored for body tremor. Doses of the compound under study began at 100 mg/kg and were decreased at a 0.5 log interval until no responders were obtained.

In series [4] the test system is HCl-induced writhing in CF1 mice. The series can be described thus: Analgesic activity, HCl writhing protection in mice. The series is classed as in vivo. As to conditions: Mus musculus, sc, 0.25 h, read-out: CNS Id (ED50 mg/kg) HCl Writh. Protect. On the procedure:
For determination of analgesic activity, the test compound was injected subcutaneously into a group of four CF1 mice. Thirty minutes later the mice were injected i.p. with 0.15% HCl, 10 ml./kg. Mice are then placed in plastic boxes and observed for fifteen minutes to record the number of animals failing to writhe.
(In general: Writhing tests count abdominal constrictions after an irritant is injected.)

The target in series [5] is CNS cholinergic receptor. Format: binding. The conditions noted are these: tritiated quinuclidine benzylate; read-out: CNS Cholinergic Receptor Binding Assays Ki (nM) QNB.
For series [6] the following is noted: U.S. Pat. No. 3,925,411; cited from earlier work.
Another series has as its system laboratory animals. As to conditions: by a cholinergic mechanism at extremely low doses; cited from earlier work.
The mark [7] stands for this setting: i.p. test compound, 20 min before oxotremorine 0.5 mg/kg s.c., mice.

What is called Ki is the dissociation constant of the complex between target and ligand, obtained from inhibition or displacement. For `CC(=O)N(C)C(C)C#CCn1ccnc1C` (centres unmarked) [Compound 15, N-[4-(2-Methyl-1H-imidazol-1-yl)-1-methyl-2-butynyl]-N-methylacetamide], in series [1], the “antagonism of amnesia produced by scopolamine” value is given as “most active”. In addition, the inhibition constant (Ki) stood at 1.6 nM on CNS cholinergic receptor [2] and 19 nM on CNS cholinergic receptor [5]. Further, the ED50 in series [3] (setting [7]) is 11.8 mg/kg; in series [4] (s.c. test compound, 30 min before 0.15% HCl i.p., CF1 mice) it was more than 50 mg/kg.
As to `CN(C)C(=O)N(C)CC#CCn1ccnc1` [Compound 24, [4-(1H-Imidazol-1-yl)-2-butynyl]trimethyl urea], the “antagonism of amnesia produced by scopolamine” value in series [1] is “most active”. Moreover, the Ki at CNS cholinergic receptor [2] worked out at 34 nM. The ED50 in series [3] (setting [7]) is more than 100 mg/kg.
`O=C1CCCN1CCC#CCN1CCCC1` [N-(5-pyrrolidino-3-pentynyl)-pyrrolidin-2-one]: in series [6], the “half life compared with prior oxotremorine compounds” value is listed as “increased half life”.
`O=C1CCCN1CC#CCN1CCCC1` [Oxotremorine, N-(4-pyrrolidino-2-butynyl)-pyrrolidin-2-one, reference compound]: the inhibition constant (Ki) on CNS cholinergic receptor [2] is 0.4 nM and 0.5 nM; at CNS cholinergic receptor [5] it was 220 nM. For the same compound, the results for the ED50 in series [3] and in series [4] were 0.11 mg/kg and 0.025 mg/kg, respectively. Also, in the series with laboratory animals, the “tremors and spasticity in laboratory animals” value was “induces tremors and spasticity in laboratory animals”.
